Entries after “also recorded” stand apart in the source; their conditions may differ.

Assay [1] concerns FP receptor. The assay can be described thus: Neurological deficit score after transient ischemia (90-min MCAO), post-treatment with FP agonist. Type of assay: in vivo, mouse. As to conditions: FP−/− mice, 100 μg/kg orally 30 min after reperfusion, scored at 96 h, mean±S.E.M., p<0.05 vs latanoprost-treated WT. The method, then:
(§1) Transient ischemia protocol. WT (n=11) and FP^−/− (n=12) mice were subjected to MCAO for 90 min followed by 96 h of reperfusion (Ahmad et al., 2006a). Mice were placed under halothane anesthesia (3.0% for induction, 1.0% for maintenance) and ventilated with oxygen-enriched air via a nose cone. Body temperatures were maintained at 37.0±0.5° C. by a heating pad. The mice were subjected to the intraluminal filament technique to produce the MCAO model of transient focal cerebral ischemia as we have described previously (Ahmad et al., 2006a). Relative cerebral blood flow (CBF) was measured by laser-Doppler flowmetry (Moor instruments, Devon, England) with a flexible probe affixed to the skull over the parietal cortex supplied by the MCA (2 mm posterior and 6 mm lateral to bregma). […] During occlusion, mice were kept in a humidity-controlled, 32° C. chamber to help maintain a body core temperature of 37° C. After 90 min of occlusion, mice were briefly re-anesthetized, the midline was reopened, and the filament was removed to establish reperfusion. After the incision was sutured, mice were again placed in the humidity- and temperature-controlled chamber for another 6 h and finally returned to their respective cages for survival up to 96 h.
(§2) Assessment of neurological deficit score. Neurological function was measured in each mouse at 96 h after reperfusion according to the following graded scoring system, as described previously (Li et al., 2004): 0=no deficit; 1=forelimb weakness and torso turning to the ipsilateral side when held by tail; 2=circling to affected side; 3=unable to bear weight on affected side; and 4=no spontaneous locomotor activity or barrel rolling.
(§3) Post-treatment of mice with the FP agonist latanoprost. […] At 96 h after MCAO, neurological deficit scores and brain injury were measured. […]

The target in assay [2] is T1, FP receptor (Mus musculus, UniProt P43117).
T1 construct: WT mice were post-treated orally with 10 μg/kg (n=10) or 100 μg/kg (n=8) latanoprost 30 min after reperfusion; endogenous in cells; host or cells: wild-type mice, whole animal (in vivo); FP-/- mice used as receptor-null control
Described as above. In kind it is in vivo. As to conditions: WT mice. How it is done: as §1, §2, §3

Assay [3] addresses T1, FP receptor. The assay can be described thus: Brain infarction (TTC staining) after transient ischemia (90-min MCAO), post-treatment with FP agonist. In kind it is in vivo. As to conditions: WT mice, TTC at 96 h. The method, then: as §1, with “After 90 min of occlusion, mice were briefly re-anesthetized, the midline was reopened, and the filament was removed to establish reperfusion. After the incision was sutured, mice were again placed in the humidity- and temperature-controlled chamber for another 6 h and finally returned to their respective cages for survival up to 96 h.” left out
as §3
Assessment of brain infarction. […] Infarct volume was assessed by 2,3,5-triphenyltetrazolium chloride (TTC) staining by an observer blinded to the treatments, as described previously (Ahmad et al., 2006a). […] The corrected volume of the infarcted hemisphere was calculated as: volume of contralateral hemisphere−(volume of ipsilateral hemisphere−volume of infarct).

T1 sequence (P43117 whole entry, the tested form may be a part): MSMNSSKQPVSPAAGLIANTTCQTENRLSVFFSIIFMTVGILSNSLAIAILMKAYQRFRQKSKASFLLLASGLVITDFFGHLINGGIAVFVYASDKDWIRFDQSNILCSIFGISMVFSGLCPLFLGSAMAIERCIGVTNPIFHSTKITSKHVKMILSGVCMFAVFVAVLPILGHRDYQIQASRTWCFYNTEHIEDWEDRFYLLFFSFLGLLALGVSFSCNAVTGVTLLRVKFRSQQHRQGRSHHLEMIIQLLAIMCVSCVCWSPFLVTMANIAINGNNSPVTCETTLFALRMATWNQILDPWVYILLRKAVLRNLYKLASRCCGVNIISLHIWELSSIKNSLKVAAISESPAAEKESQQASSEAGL

On to `CC(C)OC(=O)CCC/C=C\C[C@@H]1[C@@H](CC[C@@H](O)CCc2ccccc2)[C@H](O)C[C@@H]1O` [latanoprost, 13,14-dihydro-17-phenyl-18,19,20-trinor-PGF2α isopropyl ester], for which the neurological deficit score in assay [1] was 1.4±0.2; in assay [2] (10 μg/kg orally 30 min after reperfusion, scored at 96 h (scale 0-4), mean±S.E.M., vehicle 1.8±0.2, not significant), 2.2±0.2; in assay [2] (100 μg/kg orally 30 min after reperfusion, scored at 96 h, p<0.05 vs vehicle), “significantly increased the neurological deficit”. Besides, the “brain damage (corrected infarct volume)” value in assay [3] (10 μg/kg orally 30 min after reperfusion, vs vehicle) is recorded as “trend toward increased brain damage”; in assay [3] (100 μg/kg orally 30 min after reperfusion, p<0.05 vs vehicle) it was “significantly larger infarct volumes; also recorded: became significant”.

(Values after US20100229250A1, “TREATMENT AND PREVENTION OF ISCHEMIC BRAIN INJURY” (THE JOHNS HOPKINS UNIVERSITY, priority 2007, published 2010).)
